# Reference: patent publication US8933018B2, “Boron containing polybasic bacterial efflux pump inhibitors and therapeutic uses thereof” (priority 2011, dated 2015)
# Test system: P. aeruginosa, PAM1723, overexpressing the MexAB-OprM efflux pump
# Assay type: cell-based, Pseudomonas aeruginosa
# Conditions: lowest EPI concentration giving antibacterial activity with levofloxacin at 1/8 of its MIC, MHB, 20 h at 35° C.
# Experimental: All EPI compounds were readily soluble in water and stock solutions were prepared at a final concentration of 10 mg/ml. Stock solutions were further diluted, according to the needs of the particular assay, in Mueller Hinton Broth (MHB). Stock solution was stored at […].
# The checkerboard assay was performed in microtiter plates. […] EPIs were diluted in the y-axis, each row containing a single concentration of an EPI. […] The assay was performed in MHB with a final bacterial inoculum of 5 times 10^5 CFU/ml (from an early-log phase culture). Microtiter plates were incubated during 20 h at 35° C. and were read using a microtiter plate reader (Molecular Devices) at 650 nm as well as visual observation using a microtiter plate-reading mirror.
row,SMILES,MPC8 (Minimum Potentiating Concentration)
1,"NCCN(CCN)C(=O)CC[C@H](N)C(=O)N[C@H](CCc1ccc(C(F)(F)F)cc1)C(=O)NCC1OB(O)c2ccccc21 (stereo in doubt) [Compound 36, (S)-2-amino-N5,N5-bis(2-aminoethyl)-N1-((R)-1-(((R)-1-hydroxy-1,3-dihydrobenzo[c][1,2]oxaborol-3-yl)methylamino)-1-oxo-4-(4-(trifluoromethyl)phenyl)butan-2-yl)pentanediamide]",B (B = MPC8 of 2.5 μg/ml to less than 10 μg/mL.)
2,"NCCN(CCN)C(=O)CC[C@H](N)C(=O)N[C@H](Cc1ccc(C(F)(F)F)cc1)C(=O)Nc1ccc2c(c1)B(O)OC2 [Compound 1, (S)-2-amino-N5,N5-bis(2-aminoethyl)-N1-((R)-1-(1-hydroxy-1,3-dihydrobenzo[c][1,2]oxaborol-6-ylamino)-1-oxo-3-(4-(trifluoromethyl)phenyl)propan-2-yl)pentanediamide]",C (C = MPC8 of 10 μg/mL or greater.)
3,"NCCN(CCN)C(=O)CC[C@H](N)C(=O)N[C@H](Cc1ccc(C(F)(F)F)cc1)C(=O)NCc1ccc(B(O)O)cc1 [Compound 3, 4-(((R)-2-((S)-2-amino-5-(bis(2-aminoethyl)amino)-5-oxopentanamido)-3-(4-(trifluoromethyl)phenyl)propanamido)methyl)phenylboronic acid]",C (C = MPC8 of 10 μg/mL or greater.)
4,"NCCN(CCN)C(=O)C[C@H](N)C(=O)N[C@H](C(=O)Nc1ccc2c(c1)B(O)OC2)[C@H](O)c1ccc(C(F)(F)F)cc1 [Compound 4, (S)-2-amino-N4,N4-bis(2-aminoethyl)-N1-((1R,2S)-1-hydroxy-3-(1-hydroxy-1,3-dihydrobenzo[c][1,2]oxaborol-6-ylamino)-3-oxo-1-(4-(trifluoromethyl)phenyl)propan-2-yl)succinamide]",C (C = MPC8 of 10 μg/mL or greater.)
5,"NCCN(CCN)C(=O)C[C@H](N)C(=O)N[C@H](Cc1ccc(C(F)(F)F)cc1)C(=O)Nc1ccc2c(c1)B(O)OC2 [Compound 5, (S)-2-amino-N4,N4-bis(2-aminoethyl)-N1-((R)-1-(1-hydroxy-1,3-dihydrobenzo[c][1,2]oxaborol-6-ylamino)-1-oxo-3-(4-(trifluoromethyl)phenyl)propan-2-yl)succinamide]",C (C = MPC8 of 10 μg/mL or greater.)
6,"NCCN(CCN)C(=O)C[C@H](N)C(=O)N[C@H](CCc1ccc(C(F)(F)F)cc1)C(=O)Nc1ccc2c(c1)B(O)OC2 [Compound 7, (S)-2-amino-N4,N4-bis(2-aminoethyl)-N1-((R)-1-(1-hydroxy-1,3-dihydrobenzo[c][1,2]oxaborol-6-ylamino)-1-oxo-4-(4-(trifluoromethyl)phenyl)butan-2-yl)succinamide]",B (B = MPC8 of 2.5 μg/ml to less than 10 μg/mL.)
7,"NCCN(CCN)C(=O)CC[C@H](N)C(=O)N[C@H](Cc1ccc(C(F)(F)F)cc1)C(=O)Nc1ccccc1B(O)O [Compound 8, 2-((R)-2-((S)-2-amino-5-(bis(2-aminoethyl)amino)-5-oxopentanamido)-3-(4-(trifluoromethyl)phenyl)propanamido)phenylboronic acid]",C (C = MPC8 of 10 μg/mL or greater.)
8,"NCCN(CCN)C(=O)CC[C@H](N)C(=O)N[C@@H](Cc1ccc(C(F)(F)F)cc1)C(=O)Nc1ccccc1B(O)O [Compound 9, 2-((S)-2-((S)-2-amino-5-(bis(2-aminoethyl)amino)-5-oxopentanamido)-3-(4-(trifluoromethyl)phenyl)propanamido)phenylboronic acid]",C (C = MPC8 of 10 μg/mL or greater.)
9,"NCCN(CCN)C(=O)C[C@H](N)C(=O)N[C@H](Cc1ccc(C(F)(F)F)cc1)C(=O)Nc1cc(B(O)O)cc(C(F)(F)F)c1 [Compound 10, 3-((R)-2-((S)-2-amino-4-(bis(2-aminoethyl)amino)-4-oxobutanamido)-3-(4-(trifluoromethyl)phenyl)propanamido)-5-(trifluoromethyl)phenylboronic acid]",B (B = MPC8 of 2.5 μg/ml to less than 10 μg/mL.)
10,"NCCN(CCN)C(=O)C[C@H](N)C(=O)N[C@@H](Cc1ccc(C(F)(F)F)cc1)C(=O)Nc1cc(B(O)O)cc(C(F)(F)F)c1 [Compound 11, 3-((S)-2-((S)-2-amino-4-(bis(2-aminoethyl)amino)-4-oxobutanamido)-3-(4-(trifluoromethyl)phenyl)propanamido)-5-(trifluoromethyl)phenylboronic acid]",B (B = MPC8 of 2.5 μg/ml to less than 10 μg/mL.)
11,"NCCN(CCN)C(=O)CC[C@H](N)C(=O)N[C@H](CCC1CCCCC1)C(=O)Nc1cc(B(O)O)cc(C(F)(F)F)c1 [Compound 12, 3-((R)-2-((S)-2-amino-5-(bis(2-aminoethyl)amino)-5-oxopentanamido)-4-cyclohexylbutanamido)-5-(trifluoromethyl)phenylboronic acid]",A (A = MPC8 of less than 2.5 μg/mL.)
12,"NCCN(CCN)C(=O)CC[C@H](N)C(=O)N[C@H](CCc1ccc(C(F)(F)F)cc1)C(=O)Nc1cc(B(O)O)cc(C(F)(F)F)c1 [Compound 13, 3-((R)-2-((S)-2-amino-5-(bis(2-aminoethyl)amino)-5-oxopentanamido)-4-(4-(trifluoromethyl)phenyl)butanamido)-5-(trifluoromethyl)phenylboronic acid]",B (B = MPC8 of 2.5 μg/ml to less than 10 μg/mL.)
13,"NCCN(CCN)C(=O)CC[C@H](N)C(=O)N[C@H](Cc1ccc(C(F)(F)F)cc1)C(=O)Nc1cc(B(O)O)cc(C(F)(F)F)c1 [Compound 15, 3-((R)-2-((S)-2-amino-5-(bis(2-aminoethyl)amino)-5-oxopentanamido)-3-(4-(trifluoromethyl)phenyl)propanamido)-5-(trifluoromethyl)phenylboronic acid]",B (B = MPC8 of 2.5 μg/ml to less than 10 μg/mL.)
14,"NCCN(CCN)C(=O)CC[C@H](N)C(=O)N[C@H](Cc1ccc(C(F)(F)F)cc1)C(=O)Nc1ccc(C(F)(F)F)c(B(O)O)c1 [Compound 16, 5-((R)-2-((S)-2-amino-5-(bis(2-aminoethyl)amino)-5-oxopentanamido)-3-(4-(trifluoromethyl)phenyl)propanamido)-2-(trifluoromethyl)phenylboronic acid]",C (C = MPC8 of 10 μg/mL or greater.)
15,"NCCN(CCN)C(=O)CC[C@H](N)C(=O)N[C@H](Cc1ccc(C(F)(F)F)cc1)C(=O)Nc1ccc(B(O)O)c(C(F)(F)F)c1 [Compound 17, 4-((R)-2-((S)-2-amino-5-(bis(2-aminoethyl)amino)-5-oxopentanamido)-3-(4-(trifluoromethyl)phenyl)propanamido)-2-(trifluoromethyl)phenylboronic acid]",C (C = MPC8 of 10 μg/mL or greater.)
16,"N[C@@H]1C[C@H](N)CN(C(=O)CC[C@H](N)C(=O)N[C@H](Cc2ccc(C(F)(F)F)cc2)C(=O)Nc2cc(B(O)O)cc(C(F)(F)F)c2)C1 [Compound 18, 3-((R)-2-((S)-2-amino-5-((3R,5S)-3,5-diaminopiperidin-1-yl)-5-oxopentanamido)-3-(4-(trifluoromethyl)phenyl)propanamido)-5-(trifluoromethyl)phenylboronic acid]",B (B = MPC8 of 2.5 μg/ml to less than 10 μg/mL.)
17,"N[C@@H]1CC(NC(=O)CC[C@H](N)C(=O)N[C@H](Cc2ccc(C(F)(F)F)cc2)C(=O)Nc2cc(B(O)O)cc(C(F)(F)F)c2)C[C@H](N)C1 (stereo partly drawn) [Compound 19, 3-((R)-2-((S)-2-amino-5-((1R,3R,5S)-3,5-diaminocyclohexylamino)-5-oxopentanamido)-3-(4-(trifluoromethyl)phenyl)propanamido)-5-(trifluoromethyl)phenylboronic acid]",B (B = MPC8 of 2.5 μg/ml to less than 10 μg/mL.)
18,"NCC(O)(CN)CNC(=O)CC[C@H](N)C(=O)N[C@H](CCc1ccc(C(F)(F)F)cc1)C(=O)Nc1cc(B(O)O)cc(C(F)(F)F)c1 [Compound 21, 3-((R)-2-((S)-2-amino-5-(3-amino-2-(aminomethyl)-2-hydroxypropylamino)-5-oxopentanamido)-4-(4-(trifluoromethyl)phenyl)butanamido)-5-(trifluoromethyl)phenylboronic acid]",B (B = MPC8 of 2.5 μg/ml to less than 10 μg/mL.)
19,"NCC(O)(CN)CNC(=O)CC[C@H](N)C(=O)N[C@H](CCc1ccc(C(F)(F)F)cc1)C(=O)Nc1cccc(B(O)O)c1 [Compound 22, 3-((R)-2-((S)-2-amino-5-(3-amino-2-(aminomethyl)-2-hydroxypropylamino)-5-oxopentanamido)-4-(4-(trifluoromethyl)phenyl)butanamido) phenylboronic acid]",B (B = MPC8 of 2.5 μg/ml to less than 10 μg/mL.)
20,"N[C@@H]1C[C@H](N)C[C@H](NC(=O)CC[C@H](N)C(=O)N[C@H](CCc2ccc(C(F)(F)F)cc2)C(=O)Nc2cccc(B(O)O)c2)C1 [Compound 23, 3-((R)-2-((S)-2-amino-5-((1S,3R,5S)-3,5-diaminocyclohexylamino)-5-oxopentanamido)-4-(4-(trifluoromethyl)phenyl)butanamido)phenylboronic acid]",B (B = MPC8 of 2.5 μg/ml to less than 10 μg/mL.)
21,"N[C@@H]1C[C@H](N)CN(C(=O)CC[C@H](N)C(=O)N[C@H](CCc2ccc(C(F)(F)F)cc2)C(=O)Nc2cccc(B(O)O)c2)C1 [Compound 24, 3-((R)-2-((S)-2-amino-5-((3R,5S)-3,5-diaminopiperidin-1-yl)-5-oxopentanamido)-4-(4-(trifluoromethyl)phenyl)butanamido)phenylboronic acid]",B (B = MPC8 of 2.5 μg/ml to less than 10 μg/mL.)
